Results reported in article PMC4627230, “Identification of TAX2 peptide as a new unpredicted anti-cancer agent” (Oncotarget, 2015).

Experiments:
Format in all cases: cell-based, human
TSP-1 binding to FGF-2 = experiment: Co-immunoprecipitation TSP-1 with FGF-2; conditions: HUVECs, 100 μM; conditioned media
Protocol: (§1) Protein lysates prepared in ice-cold lysis buffer or conditioned media were subjected to immunoprecipitation assay using the Pierce Co-IP kit (Thermo Fisher Scientific) according to the manufacturer's protocol. 10 μg of antibody (anti CD47, anti-CD36, anti-FGF2, anti-VEGF, anti-β1 integrin and anti-LRP1 heavy chain) or non-specific IgGs were incubated with the delivered resin and covalently coupled. The antibody-coupled resin was incubated with whole HUVEC protein lysate overnight at 4°C under gentle agitation (no cross-linker was used to stabilize protein complexes before HUVEC lysis). Then the resin was washed and the protein complexes bound to the antibody were eluted. Immunoprecipitated protein complexes were solubilized under denaturing and reducing conditions, heated to 100°C for 5 min and analyzed by immunoblotting as described above. […]
(§2) receptors. HUVECs were treated with TAX2 (100 μM) or scrambled peptide (Ctrl, 100 μM). FGF-2 and VEGF were immunoprecipitated from conditioned media using anti-FGF-2 (clone C-18) and anti-VEGF (clone C-1), respectively. β1 integrin and LRP-1 were immunoprecipitated from total protein lysates using anti-β1 integrin (clone BV7) and anti-LRP-1 heavy chain (clone 8G1), respectively. […] Histogram represents the quantification of relative ligand-bound TSP-1 under TAX2 treatment as compared to control. […]

TSP-1 binding to VEGF = experiment: Co-immunoprecipitation TSP-1 with VEGF; conditions: HUVECs, 100 μM; conditioned media
Protocol: as §1, §2

HUVECs = experiment: Endothelial tube formation assay on matrigel
Protocol: Figure 2 TAX2 peptide impairs endothelial cell migration and inhibits angiogenesis in vitro and ex vivo A. HUVECs were treated with TAX2 (100 μM) or scrambled peptide (Ctrl, 100 μM). CD47 was immunoprecipitated from total protein lysates using anti-CD47 (clone B6H12) and non-specific IgGs were used as a negative control. Immunocomplexes were then submitted to SDS-PAGE and immunoblotted (IB) using specific TSP-1 and CD47 antibodies. Histogram represents the quantification of co-immunoprecipitated TSP-1 relative to immunoprecipitated CD47. Results are expressed as percentage compared to control (n = 3 separate experiments, t test). B. HUVECs (1 × 10^5 per well) were grown at confluence and then cell proliferation was inhibited by incubating with 10 μg/mL mitomycin C for 2 h. Migration assays were performed for 9 h with or without TAX2 peptide (100 μM), as described in Materials and Methods. Photographs (100×) were taken every 3 h. Graph represents the quantification of the wounded area. Each value is the mean of 3 independent experiments, each performed in quadruplicate. C. HUVECs (5 × 10^4 per well) were plated into the upper compartment of a Transwell membrane and incubated for 12 h in EGM-2 in the presence of 100 μM TAX2 peptide. Hoechst-stained migrating cells attached on outside surface of the top chamber were photographed (20× objective) and counted. Results are expressed as percentage of migrated cells as compared to control. Each value represents the mean of 5 independent experiments, each performed in triplicate.*p < 0.05, compared to control; t test. D. HUVECs (5 × 10^4) were cultured on matrigel layers in control conditions (Ctrl) or in the presence of TAX2. After 8 h incubation, HUVEC tube-like formation was observed on an inverted microscope (40×) and quantification of network total length was done using ImageJ software. Numeration of branching points, tubes and nodal structures was conducted using S.CORE system. Data are expressed as the mean ± SE from at least 3 independent experiments, each performed in triplicate. […] F. Total RNAs were purified from HUVECs transfected with non-silencing siRNA (siCtrl) or siRNA targeting TSP-1 (siTSP-1). The transcriptional level of TSP-1 was assessed by RT-PCR and normalized to β-actin. […] After 6 days incubation in the presence of 100 μM TAX2 or control peptide (Ctrl), images were taken with an inverted microscope (40×) and microvessel area was quantified using ImageJ software. […]
Figure 3 Anti-angiogenic properties of TAX2 are mediated by TSP-1 binding to CD36 A. Expression of CD36 in HUVECs was assessed by immunoblotting (left panel) and immunofluorescence staining (right panel, red). […] The presence of TSP-1 in immunocomplexes was quantified by densitometric analysis relative to immunoprecipitated CD36. […]

Sequence: CEVSQLLKGDAC (disulfide) [TAX2, CD47-derived cyclic disulfide dodecapeptide …]
- TSP-1 binding to FGF-2 (TSP-1 binding to FGF-2): does not affect
- TSP-1 binding to VEGF (TSP-1 binding to VEGF): does not affect
- formation of branching points, capillary tubes and nodal structures (HUVECs; HUVECs on matrigel, 8 h, S.CORE): decreased
- inhibition of pseudo-tube network formation (total network length) (HUVECs; HUVECs on matrigel, 8 h, at least 3 experiments in triplicate): 40%
- effect on lumen formation under TSP-1 gene silencing (HUVECs; HUVECs transfected with siTSP-1, matrigel, 8 h): wholly abolished
- prevention of capillary structure formation in presence of CD36 blocking antibody (HUVECs; HUVECs, 100 μM, 12 h, anti-CD36 blocking antibody, n = 3): wholly reversed
